In US9801901B2, “Alginate oligomers for use in overcoming multidrug resistance in bacteria” (priority 2009, dated 2017):
≈ marks a conversion by molar mass, not a printed value. Where two headings read alike, the source gives them in different places.

Columns and labels:
[1] = system: Pseudomonas aeruginosa MDR 301 from Poland (V2); test: MIC assay, CAMHB with alginate oligomer, no visible growth; type: cell-based; details: Pseudomonas aeruginosa, Table 4, V2 MDR (Pol.), read-out: MIC
[2] = system: Acinetobacter baumannii MDR ACB from Libya (V4); test: as above; type: cell-based; details: Acinetobacter baumannii, Table 4, V4 MDR (Libya), read-out: MIC
Text: The study described in Example 1 was repeated with the following strains of bacteria and antibiotics as detailed in Tables 4, 5 and 6.
The study described in Example 1 was repeated with the following strains of Acinetobacter baumannii, antibiotics and M-block alginate oligomer in place of OligoG CF-5/20 as detailed in Table 7. The M-block oligomer is 100% M with a DPn of 15 to 18,

[3] = system: V10 (Egypt) Acinetobacter lwoffii; test: as above; type: cell-based; details: Table 5, V10 MDR Acin. lwoff
[4] = system: V11 5702 (Wales) E. coli; test: as above; type: cell-based; details: Escherichia coli; Table 5; V11 MDR E.coli; OligoCF-5/20 0G; read-out: MIC
[5] = system: V22 6056 Acinetobacter; test: as above; type: cell-based, Acinetobacter lwoffii; details: Table 5, V22 MDR Acin. lwoff
[6] = system: strains of Klebsiella pneumoniae displaying MDR phenotypes; test: MIC-assay, Mueller-Hinton broth with G-block alginate, 384-well, OD600 (Table 10); type: cell-based; details: Klebsiella pneumoniae (K3, India, V8) MDR
Text: Minimum inhibitory concentration (MICs) of different antibiotics for strains of Klebsiella pneumoniae displaying MDR phenotypes in the presence of varying concentrations of OligoCF-5/20 (0-10%). (MIC values are expressed in μg ml^−1).

[7] = system: MDR Providencia stuartii; test: MIC-assay, Mueller-Hinton broth with G-block alginate, 384-well, OD600 (Table 11); type: cell-based; details: Providencia stuartii (IR57 India, V7) MDR
Text: Minimum inhibitory concentration (MICs) of different antibiotics for strains of E. coli and Providencia stuartii displaying MDR phenotypes in the presence of varying concentrations of OligoCF-5/20 (0-10%). (MIC values are expressed in μg ml^−1).

[8] = system: Staphylococcus aureus (MRSA) U50; test: MIC-assay, Mueller-Hinton broth with G-block alginate, 384-well, OD600 (Table 12); type: cell-based; details: MRSA 1040s, U50 MDR
Text: (§1) Minimum inhibitory concentration (MICs) of different antibiotics for strains of Streptococcus oralis and Staphylococcus aureus (MRSA) displaying MDR phenotypes in the presence of varying concentrations of OligoCF-5/20 (0-10%). (MIC values are expressed in μg ml^−1).

[9] = system: Streptococcus oralis; test: as above; type: cell-based; details: Streptococcus oralis (5610, V17) MDR
Text: as §1

[10] = system: Pseudomonas aeruginosa (MDR 301, PSA, V2); test: MIC-assay, Mueller-Hinton broth with G-block alginate, 384-well, OD600; details: Table 8, V2
[11] = system: Pseudomonas aeruginosa (R22, PSA, V1); test: as above; details: Table 8, G-block (OligoCF-5/20) 0%
[12] = system: Acinetobacter lwoffii (6056, V22); test: as above
[13] = system: Acinetobacter baumannii (Egypt, V9); test: as above
[14] = system: Acinetobacter lwoffii (Egypt, V10); test: as above
[15] = G-block (OligoCF-5/20) 0%, read-out: MIC
[16] = G-block (OligoCF-5/20) 2%, read-out: MIC
[17] = Table 9, G-block (OligoCF-5/20) 0%
[18] = Table 9, G-block (OligoCF-5/20) 2%
[19] = Table 9, G-block (OligoCF-5/20) 6%
[20] = Table 9, G-block (OligoCF-5/20) 10%

CC[C@H]1OC(=O)[C@H](C)[C@@H](O[C@H]2C[C@@](C)(OC)[C@@H](O)[C@H](C)O2)[C@H](C)[C@@H](O[C@@H]2O[C@H](C)C[C@H](N(C)C)[C@H]2O)[C@](C)(O)C[C@@H](C)C(=O)[C@H](C)[C@@H](O)[C@]1(C)O [Erythromycin]
MIC ([1]; OligoCF-5/20 0G): 128 µg/mL (≈ 174 µM) | MIC ([1]; OligoCF-5/20 +6% G): 64 µg/mL (≈ 87.2 µM) | MIC ([1]; OligoCF-5/20 +10% G): 16 µg/mL (≈ 21.8 µM) | MIC ([2]; OligoCF-5/20 0G): 8 µg/mL (≈ 10.9 µM) | MIC ([2]; OligoCF-5/20 +2% G): 2 µg/mL (≈ 2.73 µM) | MIC ([2]; OligoCF-5/20 +6% G): ≤ 1 µg/mL | MIC ([2]; OligoCF-5/20 +10% G): ≤ 1 µg/mL | MIC ([3]; Acinetobacter lwoffii, OligoCF-5/20 0G, read-out: MIC): < 0.5 µg/mL | MIC ([3]; OligoCF-5/20 +2% G): <0.5 µg/mL | MIC ([3]; OligoCF-5/20 +6% G): <0.5 µg/mL | MIC ([3]; OligoCF-5/20 +10% G): <0.5 µg/mL | MIC [4]: 512 µg/mL (≈ 698 µM) | MIC ([5]; Acinetobacter, OligoCF-5/20 0G, read-out: MIC): < 0.5 µg/mL | MIC ([5]; OligoCF-5/20 +2% G): <0.5 µg/mL | MIC ([5]; OligoCF-5/20 +6% G): <0.5 µg/mL | MIC ([5]; OligoCF-5/20 +10% G): <0.5 µg/mL | MIC ([6]; G-block (OligoCF-5/20) 0%): 128 µg/mL (≈ 174 µM) | MIC ([6]; G-block (OligoCF-5/20) 2%): 128 µg/mL (≈ 174 µM) | MIC ([6]; G-block (OligoCF-5/20) 6%): 128 µg/mL (≈ 174 µM) | MIC ([6]; G-block (OligoCF-5/20) 10%): 128 µg/mL (≈ 174 µM) | MIC ([7]; G-block (OligoCF-5/20) 0%): 32 µg/mL (≈ 43.6 µM) | MIC ([7]; G-block (OligoCF-5/20) 2%): 16 µg/mL (≈ 21.8 µM) | MIC ([7]; G-block (OligoCF-5/20) 6%): 16 µg/mL (≈ 21.8 µM) | MIC ([7]; G-block (OligoCF-5/20) 10%): 16 µg/mL (≈ 21.8 µM) | MIC [8, 15]: > 1020 µg/mL | MIC [8, 16]: > 1020 µg/mL | MIC ([8]; G-block (OligoCF-5/20) 6%): 1020 µg/mL (≈ 1400 µM) | MIC ([8]; G-block (OligoCF-5/20) 10%): 512 µg/mL (≈ 698 µM) | MIC [9, 15]: 2 µg/mL (≈ 2.73 µM) | MIC [9, 16]: 16 µg/mL (≈ 21.8 µM) | MIC ([9]; G-block (OligoCF-5/20) 6%): 0.0312 µg/mL (≈ 0.0426 µM) | MIC ([9]; G-block (OligoCF-5/20) 10%): 0.0625 µg/mL (≈ 0.0852 µM) | MIC ([10]; Pseudomonas aeruginosa, G-block (OligoCF-5/20) 0%): > 512 µg/mL | MIC ([10]; Pseudomonas aeruginosa, G-block (OligoCF-5/20) 2%): > 512 µg/mL | MIC ([10]; G-block (OligoCF-5/20) 10%): 512 µg/mL (≈ 698 µM) | MIC [11]: > 512 µg/mL | MIC [12, 17]: < 2 µg/mL | MIC [12, 18]: < 2 µg/mL | MIC [12, 19]: < 2 µg/mL | MIC [12, 20]: < 2 µg/mL | MIC [13, 17]: 8 µg/mL (≈ 10.9 µM) | MIC [13, 18]: 2 µg/mL (≈ 2.73 µM) | MIC [13, 19]: 1 µg/mL (≈ 1.36 µM) | MIC [13, 20]: < 1 µg/mL | MIC [14, 17]: 1 µg/mL (≈ 1.36 µM) | MIC [14, 18]: < 1 µg/mL | MIC [14, 19]: < 1 µg/mL | MIC [14, 20]: < 1 µg/mL
